# Data from patent US20260132129A1 (Genesis Therapeutics, Inc., priority 2022, published 2026).
# Molecular target: T1, PI3Kα H1047R (T47D cells) (Homo sapiens, UniProt P42336, H1047R)
# T1 construct: endogenous in cells; host or cells: T47D cells
# Test: PI3Kα cellular assay: pAKT HTRF in T47D cells after EGF stimulation
# Type: cell-based
# Settings: for IC50: T47D cells (PI3Kα H1047R), pAKT S473 HTRF, EGF stimulation
# Method in brief: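 pAKT read by HTRF in lysates of EGF-stimulated (20 ng/mL, 10 min) T47D H1047R cells. Before stimulation, serum-starved cells (16 h) received compound for 1 h at 37 °C, dosed from 10,000 nM down to 0.5 nM in 3-fold steps.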
# T1 sequence (P42336 whole entry H1047R): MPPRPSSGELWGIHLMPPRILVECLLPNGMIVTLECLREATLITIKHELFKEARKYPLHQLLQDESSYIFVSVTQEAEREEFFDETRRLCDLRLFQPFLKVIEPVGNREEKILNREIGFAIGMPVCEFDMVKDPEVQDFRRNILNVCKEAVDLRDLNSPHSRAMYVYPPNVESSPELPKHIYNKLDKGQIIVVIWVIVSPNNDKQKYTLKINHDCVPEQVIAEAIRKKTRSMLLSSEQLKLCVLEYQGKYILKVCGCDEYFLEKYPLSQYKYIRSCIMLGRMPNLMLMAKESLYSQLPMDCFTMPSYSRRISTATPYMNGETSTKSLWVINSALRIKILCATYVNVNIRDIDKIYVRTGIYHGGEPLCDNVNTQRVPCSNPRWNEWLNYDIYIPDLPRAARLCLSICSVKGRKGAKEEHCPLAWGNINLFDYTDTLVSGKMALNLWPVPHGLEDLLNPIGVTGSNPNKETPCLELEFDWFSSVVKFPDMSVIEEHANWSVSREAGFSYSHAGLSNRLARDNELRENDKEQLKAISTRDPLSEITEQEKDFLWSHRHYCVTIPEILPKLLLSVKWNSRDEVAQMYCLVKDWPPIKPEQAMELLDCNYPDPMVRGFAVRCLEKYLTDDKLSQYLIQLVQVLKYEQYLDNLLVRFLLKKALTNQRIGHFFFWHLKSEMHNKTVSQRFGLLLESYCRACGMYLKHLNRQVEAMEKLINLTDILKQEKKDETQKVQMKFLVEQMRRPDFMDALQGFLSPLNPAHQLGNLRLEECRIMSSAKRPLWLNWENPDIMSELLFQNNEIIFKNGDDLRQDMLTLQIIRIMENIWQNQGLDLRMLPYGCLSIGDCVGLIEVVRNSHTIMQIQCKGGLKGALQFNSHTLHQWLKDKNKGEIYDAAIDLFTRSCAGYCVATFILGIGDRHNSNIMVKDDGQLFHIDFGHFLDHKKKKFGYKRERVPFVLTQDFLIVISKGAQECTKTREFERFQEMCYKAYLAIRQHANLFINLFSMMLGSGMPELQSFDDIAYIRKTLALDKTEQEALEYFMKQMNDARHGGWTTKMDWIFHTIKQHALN
# T1 sequence (P27986 whole entry partner): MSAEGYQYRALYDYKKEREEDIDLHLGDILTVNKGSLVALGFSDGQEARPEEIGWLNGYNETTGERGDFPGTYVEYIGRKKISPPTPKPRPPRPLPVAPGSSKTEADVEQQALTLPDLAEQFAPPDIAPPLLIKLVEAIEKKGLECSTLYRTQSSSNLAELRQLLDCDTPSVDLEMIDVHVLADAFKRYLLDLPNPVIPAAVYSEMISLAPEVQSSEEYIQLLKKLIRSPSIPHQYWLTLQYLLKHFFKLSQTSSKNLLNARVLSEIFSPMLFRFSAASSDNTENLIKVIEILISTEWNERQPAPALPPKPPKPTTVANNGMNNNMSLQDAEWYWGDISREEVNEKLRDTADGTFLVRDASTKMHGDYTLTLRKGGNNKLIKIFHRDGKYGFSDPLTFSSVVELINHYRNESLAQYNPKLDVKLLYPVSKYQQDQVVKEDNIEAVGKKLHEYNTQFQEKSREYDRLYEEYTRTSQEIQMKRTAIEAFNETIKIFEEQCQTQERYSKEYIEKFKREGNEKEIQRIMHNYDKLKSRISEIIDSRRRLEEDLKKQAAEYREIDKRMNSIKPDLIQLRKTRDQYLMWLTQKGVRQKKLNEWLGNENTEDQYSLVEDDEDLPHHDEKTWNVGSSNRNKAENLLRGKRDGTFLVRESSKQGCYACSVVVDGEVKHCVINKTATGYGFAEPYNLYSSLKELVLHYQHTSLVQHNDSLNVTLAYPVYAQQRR
Structure (SMILES),T47D pAKT S473 HTRF IC50 (H1047R): T47D (H1047R) selectivity over SKBR3 (WT),IC50
Cc1cc([C@H](C)Nc2ccccc2S(N)(=O)=O)c2nc(-c3ccc(C4CCNCC4)nc3)c(C)c(=O)n2c1 [Compound 1345],C (C denotes ≤5-fold),
Cc1cc([C@@H](C)Nc2ccccc2C(=O)NS(=O)(=O)N(C)C)c2nc(-c3cccc(F)c3)c(C)c(=O)n2c1 [Compound 1346],C (C denotes ≤5-fold),
Cc1cc([C@H](C)Nc2ccccc2C(=O)NS(=O)(=O)N(C)C)c2nc(-c3cccc(F)c3)c(C)c(=O)n2c1 [Compound 1347],B (B denotes 20-fold≥value>5-fold),
Cc1cn2c(=O)c(C)c(-c3cccc(F)c3)nc2c(C(C)Nc2ccccc2C(=O)O)c1C (stereo not shown) [Compound 1348],A (A denotes >20-fold),< 100 nM
Cc1cc([C@H](C)Nc2ccccc2C(=O)NS(C)(=O)=O)c2cc(-c3cccc(F)c3)c(C)c(=O)n2c1 [Compound 1351],C (C denotes ≤5-fold),
Cc1cc(C(C)Nc2ccccc2C(=O)O)c2nc(C3CCCOC3)c(C#N)c(=O)n2c1 (stereo not shown) [Compound 1353],A (A denotes >20-fold),100 to 500 nM
Cc1cc([C@@H](C)Nc2ccccc2S(C)(=O)=O)c2nc(-c3ccc(C4CCC(C)CC4)cc3)c(C)c(=O)n2c1 (stereo partly shown) [Compound 1354],C (C denotes ≤5-fold),
Cc1cc(C(C)Nc2cccc3onc(O)c23)c2nc(-c3cccc(F)c3)c(C)c(=O)n2c1 (stereo not shown) [Compound 1356],A (A denotes >20-fold),
Cc1ccc(N[C@H](C)c2cc(C)cn3c(=O)c(C)c(-c4cccc(F)c4)nc23)c(C(=O)O)c1 [Compound 1357],C (C denotes ≤5-fold),
Cc1cc([C@@H](C)Nc2ccccc2C(=O)O)c2cc([C@@H]3CCCOC3)c(C#N)c(=O)n2c1 [Compound 1361],A (A denotes >20-fold),
Cc1cc([C@H](C)Nc2ccccc2C(=O)O)c2nc(C3CCCOC3)c(C#N)c(=O)n2c1 (stereo partly shown) [Compound 1364],C (C denotes ≤5-fold),> 2000 nM
"Cc1cc(C(C)Nc2cccc3onc(O)c23)c2nc(-c3cccnc3)c(C)c(=O)n2c1 (stereo not shown) [Compound 1365, 9-(1-((3-hydroxybenzo[d]isoxazol-4-yl)amino)ethyl)-3,7-dimethyl-2-(pyridin-3-yl)-4H-pyrido[1,2-a]pyrimidin-4-one]",A (A denotes >20-fold),100 to 500 nM
"Cc1cc(C(C)Nc2ccccc2-c2cc(O)no2)c2nc(-c3cccc(F)c3)c(C)c(=O)n2c1 (stereo not shown) [Compound 1367, 2-(3-fluorophenyl)-9-(1-((2-(3-hydroxyisoxazol-5-yl)phenyl)amino)ethyl)-3,7-dimethyl-4H-pyrido[1,2-a]pyrimidin-4-one]",A (A denotes >20-fold),100 to 500 nM
"Cc1cc([C@@H](C)Nc2ccccc2-c2cc(O)no2)c2nc(-c3cccc(F)c3)c(C)c(=O)n2c1 [Compound 1368, (R)-2-(3-fluorophenyl)-9-(1-((2-(3-hydroxyisoxazol-5-yl)phenyl)amino)ethyl)-3,7-dimethyl-4H-pyrido[1,2-a]pyrimidin-4-one]",C (C denotes ≤5-fold),> 2000 nM

# Results, then the compound that gave them:
T47D pAKT S473 HTRF IC50 (H1047R): T47D (H1047R) selectivity over SKBR3 (WT),IC50,Structure (SMILES)
C (C denotes ≤5-fold),> 2000 nM,Cc1cc([C@@H](C)Oc2ccccc2C(=O)O)c2nc(-c3cccc(F)c3)c(C)c(=O)n2c1 [Compound 1372]
C (C denotes ≤5-fold),> 2000 nM,Cc1cc([C@H](C)Oc2ccccc2C(=O)O)c2nc(-c3cccc(F)c3)c(C)c(=O)n2c1 [Compound 1373]
C (C denotes ≤5-fold),> 2000 nM,Cc1cc(C(C)Nc2cccc3onc(O)c23)c2nc(-c3cccc(F)c3)c(C)c(=O)n2c1 (stereo not shown) [Compound 1375]
A (A denotes >20-fold),,Cc1cc(C(C)Oc2ccccc2C2(O)CS(=O)(=O)C2)c2nc(-c3cccc(F)c3)c(C)c(=O)n2c1 (stereo not shown) [Compound 1382]
B (B denotes 20-fold≥value>5-fold),500 to 2000 nM,"Cc1cc(C(C)Nc2ccccc2C2(O)COC2)c2nc(-c3cccc(F)c3)c(C)c(=O)n2c1 (stereo not shown) [Compound 1389, 2-(3-fluorophenyl)-9-(1-((2-(3-hydroxyoxetan-3-yl)phenyl)amino)ethyl)-3,7-dimethyl-4H-pyrido[1,2-a]pyrimidin-4-one]"
C (C denotes ≤5-fold),> 2000 nM,Cc1cc([C@@H](C)Oc2ccccc2C2(O)CS(=O)(=O)C2)c2nc(-c3cccc(F)c3)c(C)c(=O)n2c1 [Compound 1392]
A (A denotes >20-fold),100 to 500 nM,Cc1cc([C@@H](C)Nc2ccccc2C2(O)COC2)c2nc(-c3cccc(F)c3)c(C)c(=O)n2c1 [Compound 1399]
C (C denotes ≤5-fold),,Cc1cc([C@H](C)Nc2cccc3onc(O)c23)c2nc(-c3ccccc3)c(C)c(=O)n2c1 [Compound 1403]
A (A denotes >20-fold),,Cc1cc([C@H](C)Nc2ccccc2-c2ccnnc2)c2cc([C@H]3CCCOC3)c(C)c(=O)n2c1 [Compound 1406]
A (A denotes >20-fold),< 100 nM,Cc1cc([C@H](C)Nc2ccccc2-c2ccnnc2)c2nc([C@@H]3CCCOC3)c(C)c(=O)n2c1 [Compound 1407]
A (A denotes >20-fold),< 100 nM,"Cc1cc(C(C)Nc2ccccc2C(=O)O)c2nc(-c3ccncc3)c(C)c(=O)n2c1 (stereo not shown) [Compound 1408, 2-((1-(3,7-dimethyl-4-oxo-2-(pyridin-4-yl)-4H-pyrido[1,2-a]pyrimidin-9-yl)ethyl)amino)benzoic acid]"
A (A denotes >20-fold),100 to 500 nM,"Cc1cc(C(C)Nc2ccsc2-c2ccnnc2)c2nc(N3Cc4ccccc4C3)c(C)c(=O)n2c1 (stereo not shown) [Compound 1409, 2-(isoindolin-2-yl)-3,7-dimethyl-9-(1-((2-(pyridazin-4-yl)thiophen-3-yl)amino)ethyl)-4H-pyrido[1,2-a]pyrimidin-4-one]"
A (A denotes >20-fold),< 100 nM,"Cc1cc(C(C)Nc2ccccc2C(=O)O)c2nc(-c3cnc4c(c3)c(C)c(C)n4C)c(C)c(=O)n2c1 (stereo not shown) [Compound 1410, 2-((1-(3,7-dimethyl-4-oxo-2-(1,2,3-trimethyl-1H-pyrrolo[2,3-b]pyridin-5-yl)-4H-pyrido[1,2-a]pyrimidin-9-yl)ethyl)amino)benzoic acid]"
A (A denotes >20-fold),< 100 nM,"Cc1cc(C(C)Nc2ccccc2C(=O)O)c2nc(-c3cnc4c(c3)c(C)nn4C)c(C)c(=O)n2c1 (stereo not shown) [Compound 1411, 2-((1-(2-(1,3-dimethyl-1H-pyrazolo[3,4-b]pyridin-5-yl)-3,7-dimethyl-4-oxo-4H-pyrido[1,2-a]pyrimidin-9-yl)ethyl)amino)benzoic acid]"
A (A denotes >20-fold),< 100 nM,"Cc1cc(C(C)Nc2ccccc2C(=O)O)c2nc(N3Cc4ccccc4C3)c(C)c(=O)n2c1.O=C(O)C(F)(F)F (stereo not shown) [Compound 1412, 2-((1-(2-(isoindolin-2-yl)-3,7-dimethyl-4-oxo-4H-pyrido[1,2-a]pyrimidin-9-yl)ethyl)amino)benzoic acid trifluoroacetate]"
A (A denotes >20-fold),100 to 500 nM,"Cc1cc(C(C)Nc2ccccc2C(=O)O)c2nc(-c3cc(C)c4oc(=O)[nH]c4c3)cc(=O)n2c1 (stereo not shown) [Compound 1413, 2-((1-(7-methyl-2-(7-methyl-2-oxo-2,3-dihydrobenzo[d]oxazol-5-yl)-4-oxo-4H-pyrido[1,2-a]pyrimidin-9-yl)ethyl)amino)benzoic acid]"
